Reference: ChEMBL document CHEMBL5550126, “Identification of naphthalimide-derivatives as novel PBD-targeted polo-like kinase 1 inhibitors with efficacy in drug-resistant lung cancer cells” (Eur J Med Chem, 2024)
The source made the active and inactive calls. The rule behind the calls is not given here.

How the values were obtained:
[1] = Toxicity in male BALB/c nude mouse xenografted with human gefitinib resistant NCI-H1975 cells assessed as heart damage at 30 mg/kg, po administered every 2 days for 20 days and measured 3 times a week by H and E staining based analysis; assay type: organism-based; settings: in vivo, 480 h, time 20 day
[2] = molecular target: T1, Serine/threonine-protein kinase PLK1 (Homo sapiens, UniProt P53350); experiment: Binding affinity to recombinant PLK1 (unknown origin) assessed as signal attenuation at 200 uM by NMR analysis
[3] = GSH reactivity of compound in PBS assessed as increase in fluorogenic response at 5 uM measured after 0 to 24 hrs by fluorescence spectrophotometer; assay type: physicochemical; settings: buffer, time 0-24 hrs
[4] = test system: A549; experiment: Induction of cell cycle arrest at G2/M phase in human A549 cells at 0 to 15 uM measured after 48 hrs by RNase A/PI staining based flow cytometry analysis; assay type: functional; settings: dose 0-15 µM
[5] = test system: A549/CDDP; experiment: Antitumor activity against human A549/DDP cells assessed as male BALB/c nude mouse assessed as tumor growth inhibition at 50 mg/kg, ip administered every 2 days for 32 days and measured 3 times a week relative to control; assay type: functional; settings: 768 h, time 32 day, read-out: TGI
[6] = test system: MCF7; experiment: Anticancer activity against human MCF7 cells assessed as inhibition of cell growth incubated for 48 hrs by crystal violet staining based analysis; assay type: functional; settings: MCF7, 48 h
[7] = molecular target: T1, Serine/threonine-protein kinase PLK1; experiment: Inhibition of PLK1 in human A549/DDP cells assessed as reduction in protein abundance measured after 48 hrs by Western blot analysis; assay type: cell-based
[8] = test system: A549; experiment: Anticancer activity against human A549 cells assessed as inhibition of cell growth incubated for 48 hrs by crystal violet staining based analysis; assay type: functional; settings: A549, 48 h
[9] = test system: A549; experiment: Induction of mitotic catastrophe in human A549 cells assessed as appearance of multinucleated cells during mitosis at 1.5 uM measured after 48 hrs by immunostaining based laser confocal microscopic analysis; assay type: functional, cell-based
[10] = test system: A549/CDDP; experiment: Effect on c-Myc protein expression in human A549/DDP cells assessed as effect on protein abundance at 0 to 6 uM measured after 48 hrs by Western blot analysis; assay type: functional, cell-based; settings: dose 0-6 µM
[11] = Toxicity in male BALB/c nude mouse xenografted with human gefitinib resistant NCI-H1975 cells assessed as kidney damage at 30 mg/kg, po administered every 2 days for 20 days and measured 3 times a week by H and E staining based analysis; assay type: organism-based; settings: in vivo, 480 h, time 20 day
[12] = test system: A549/CDDP; experiment: Disruption of redox homeostasis in human A549/DDP cells assessed as reduction in GSH level at 0 to 9 uM measured after 48 hrs; assay type: functional, cell-based; settings: dose 0-9 µM
[13] = molecular target: T1, Serine/threonine-protein kinase PLK1; experiment: Binding affinity to FLAG-tagged PLK1 kinase region (unknown origin) transfected in human A549 cells at 10 uM incubated for 1 hr by coimmunoprecipitation-MS analysis; assay type: cell-based
[14] = molecular target: T1, Serine/threonine-protein kinase PLK1; experiment: Inhibition of PLK1 in human A549/DDP cells assessed as reduction in PLK1 phosphorylation measured after 48 hrs by Western blot analysis; assay type: cell-based
[15] = test system: A549/CDDP; experiment: Effect on p21 protein expression in human A549/DDP cells assessed as effect on protein abundance at 0 to 6 uM measured after 48 hrs by Western blot analysis; assay type: functional, cell-based; settings: dose 0-6 µM
[16] = molecular target: T1, Serine/threonine-protein kinase PLK1; experiment: Binding affinity to PLK1 in human A549/DDP cell lysates assessed as thermal stabilization at 20 uM at 44 to 64 degreeC incubated for 2 hrs by CETSA; assay type: subcellular; settings: Lysate
[17] = Toxicity in male BALB/c nude mouse xenografted with human A549/DDP cells assessed as lung damage at 30 to 50 mg/kg, ip administered every 2 days for 32 days by H and E staining based analysis; assay type: organism-based, A549/CDDP; settings: in vivo, 768 h, dose 30-50 mg/kg, time 32 day
[18] = molecular target: T1, Serine/threonine-protein kinase PLK1; experiment: Binding affinity to PLK1 in human A549/DDP intact cells assessed as thermal stabilization at 3 uM at 44 to 64 degreeC incubated for 2 hrs by CETSA; assay type: cell-based
[19] = test system: A549; experiment: Induction of mitotic catastrophe in human A549 cells assessed as reduction in PRC1 recruitment by PLK1 in anaphase at 1.5 to 3 uM measured after 48 hrs by immunostaining based laser confocal microscopic analysis; assay type: functional, cell-based; settings: dose 1.5-3 µM
[20] = GSH reactivity in human A549/DDP cells assessed as increase in fluorescence intensity measured after 48 hrs; assay type: ADME, cell-based; settings: dose 0-9 µM
[21] = test system: A549/CDDP; experiment: Antitumor activity against human A549/DDP cells assessed as male BALB/c nude mouse assessed as median survival time at 50 mg/kg, ip administered every 2 days for 32 days (reference value: 38 days); assay type: functional; settings: time 32 day
[22] = test system: NCI-H460; experiment: Anticancer activity against human NCI-H460 cells assessed as inhibition of cell growth incubated for 48 hrs by crystal violet staining based analysis; assay type: functional; settings: NCI-H460, 48 h
[23] = Toxicity in male BALB/c nude mouse xenografted with human gefitinib resistant NCI-H1975 cells assessed as reduction in body weight at 30 mg/kg, po administered every 2 days for 20 days and measured 3 times a week; assay type: organism-based; settings: in vivo, 480 h, time 20 day
[24] = test system: A549; experiment: Disruption of PLK1-PRC1 protein protein interaction in human A549 cells assessed as reduction in amount of PLK1 captured by PRC1 antibody at 6 uM measured after 48 hrs by Co-IP analysis; assay type: cell-based
[25] = test system: MGC-803; experiment: Anticancer activity against human MGC-803 cells assessed as inhibition of cell growth incubated for 48 hrs by crystal violet staining based analysis; assay type: functional; settings: MGC-803, 48 h
[26] = Toxicity in male BALB/c nude mouse xenografted with human A549/DDP cells assessed as reduction in body weight at 30 to 50 mg/kg, ip administered every 2 days for 32 days and measured 3 times a week; assay type: organism-based, A549/CDDP; settings: in vivo, 768 h, dose 30-50 mg/kg, time 32 day
[27] = Toxicity in male BALB/c nude mouse xenografted with human gefitinib resistant NCI-H1975 cells assessed as lung damage at 30 mg/kg, po administered every 2 days for 20 days and measured 3 times a week by H and E staining based analysis; assay type: organism-based; settings: in vivo, 480 h, time 20 day

T1 sequence (P53350 whole entry): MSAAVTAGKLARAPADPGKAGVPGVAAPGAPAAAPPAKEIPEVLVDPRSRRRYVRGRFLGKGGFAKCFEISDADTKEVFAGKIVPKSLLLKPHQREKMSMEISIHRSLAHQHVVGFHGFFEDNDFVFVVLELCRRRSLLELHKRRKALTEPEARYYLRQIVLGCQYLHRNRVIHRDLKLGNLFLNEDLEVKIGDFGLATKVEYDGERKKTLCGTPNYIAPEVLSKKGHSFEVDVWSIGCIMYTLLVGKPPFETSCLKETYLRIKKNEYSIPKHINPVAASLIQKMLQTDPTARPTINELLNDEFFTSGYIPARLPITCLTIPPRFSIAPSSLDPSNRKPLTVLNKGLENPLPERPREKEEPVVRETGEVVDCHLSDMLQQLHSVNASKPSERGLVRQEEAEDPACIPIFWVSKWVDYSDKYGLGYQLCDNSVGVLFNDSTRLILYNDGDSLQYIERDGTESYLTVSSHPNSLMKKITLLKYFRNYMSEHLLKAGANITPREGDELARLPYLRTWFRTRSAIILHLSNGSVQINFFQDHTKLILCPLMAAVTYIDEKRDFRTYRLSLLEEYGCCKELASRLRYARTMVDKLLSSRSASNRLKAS

With `CN(C)CCN1C(=O)c2cccc3c(S(=O)(=O)NCc4ccc(F)cc4)ccc(c23)C1=O` the Activity [1] was “Non-Toxic”, the Activity [2] was “Active” and the Drug metabolism [3] was “Metabolite_Detected”. For the same compound, the Activity [4] was “Active”, the inhibition in vivo at 50 mg/kg [5] was 62% and the IC50 [6] was 6.54 µM. The inhibition [7] was “Active”, the IC50 [8] was 10.6 µM and the Activity [9] was “Active”. For the same compound, the Activity [10] was “Active”, the Activity [11] was “Non-Toxic” and the Activity [12] was “Active”. For the same compound, the Activity [13] was “inactive”, the inhibition [14] was “Active” and the Activity [15] was “Active”. For the same compound, the Activity [16] was “Active”, the Activity [17] was “Non-Toxic” and the Activity [18] was “Active”. The Activity [19] was “Active”, the Drug metabolism [20] was “Metabolite_Detected” and the MSD [21] was 62 days. For the same compound, the IC50 [22] was 2.31 µM, the Activity [23] was “Non-Toxic” and the Activity [24] was “Active”. The IC50 [25] was 3.2 µM, the Activity [26] was “Non-Toxic” and the Activity [27] was “Non-Toxic”.
